Source: patent publication US10703764B2, “Benzopiperazine compositions as BET bromodomain inhibitors” (FORMA Therapeutics, Inc., priority 2013, dated 2020)

Tests used:
[1] = target: T1, BRD4 BD2 (Homo sapiens, UniProt O60885); test: AlphaScreen binding assay, BRD4 Bromodomain 2
T1 construct: made in house
Procedure: (§1) The binding of Example compounds to BRD4 Bromodomain 1 and BRD4 Bromodomain 2 was assessed using 384-well AlphaScreen assay technology. His-epitope tagged BRD4 BD144-168 and BRD4 BD2333-460 were cloned, expressed, and purified to homogeneity. BRD4 BD1 and BRD4 BD2 binding and inhibition was assessed by monitoring the engagement of biotinylated Histone H4 (1-21) K5/8/12/16 tetra-acetylated peptide with the targets using the AlphaScreen technology (PerkinElmer). Specifically, in a 384-well black or white flat bottom plate, BRD4 BD1 (50 nM final) or BRD4 BD2 (100 nM final) was combined with peptide (50 nM final for BD1 or 100 nM final for BD2) in 50 mM HEPES (pH 7.3), 100 mM NaCl, 0.1% (w/v) BSA, and 0.01% (w/v) Triton X-100 either in the presence of DMSO (final 1.25% DMSO) or compound dilution series in DMSO. Alpha streptavidin donor beads and Nickel-chelate acceptor beads were added to a final concentration of 10 μg/ml each. After a minimum of 1 hour equilibration, plates were read on a BMG PHERAstar FS multi-label reader (BMG LabTech). The half maximal inhibitory concentration (IC50) values were calculated using IDBS Activity Base software with a four parameter logistic curve fit by the equation y=A+((B−A)/(1+((C/x)^D))), wherein A denotes the bottom plateau of the curve, B denotes the top plateau of the curve, C denotes the x value at the middle of the curve, D denotes the slope factor, x denotes the original known x values, and y denotes the original known y values. Data was fitted using the Levenburg Marquardt algorithm.

[2] = target: T2, BRD4 BD1 (Homo sapiens, UniProt O60885); test: AlphaScreen binding assay, BRD4 Bromodomain 1
T2 construct: made in house
Procedure: as §1

Compound	IC50 [1]	IC50 [2]
COC(=O)N1c2ccc(-c3ccc(NS(C)(=O)=O)cc3)cc2N(C(=O)Oc2ccccn2)C[C@@H]1C [Example I-1317]	50 to 500 nM	1 to 10 µM
CC(=O)N1c2ccc(-c3ccc(S(C)(=O)=O)cc3)cc2N(C(=O)Nc2cccc(Cl)c2)C[C@@H]1C [Example I-969]	> 500 nM	> 10 µM
CCCn1cc(-c2ccc3c(c2)N(C(=O)c2ccco2)C[C@H](C)N3C(=O)C(F)(F)F)cn1 [Example I-363]	50 to 500 nM	1 to 10 µM
CC(=O)N1c2ccc(-c3cccc(C(N)=O)c3)cc2N(C(=O)c2ccco2)C[C@@H]1C [Example I-856]	< 50 nM	1 to 10 µM
CC(=O)N1c2ccc(-c3ccc4nncn4n3)cc2N(C(=O)c2ccco2)C[C@@H]1C [Example I-396]	50 to 500 nM	1 to 10 µM
CC(=O)N1c2ccc(-c3cc(F)cc(F)c3)cc2N(C(=O)c2ccco2)C[C@@H]1C [Example I-869]	50 to 500 nM	1 to 10 µM
CC(=O)N1c2ccc(-c3ccc(-c4nnco4)cc3)cc2N(C(=O)c2ccco2)C[C@@H]1C [Example I-416]	< 50 nM	1 to 10 µM
CC(=O)N1c2ccccc2N(C(=O)c2ccc(Oc3ccccc3)cc2)C[C@@H]1C [Example I-742]	> 500 nM	> 10 µM
CC(=O)N1c2ccccc2N(Cc2cc(C)ccc2C)C[C@@H]1C [Example I-903]	> 500 nM	> 10 µM
CO[C@@H](C(=O)N1C[C@H](C)N(C(C)=O)c2ccccc21)c1ccccc1 [Example I-740]	> 500 nM	> 10 µM
CC(=O)N1c2ccc(-c3cnn(CC(=O)N4CCC4)c3)cc2N(C(=O)C2CC2)C[C@@H]1C [Example I-672]	50 to 500 nM	1 to 10 µM
COC(=O)N1c2ccc(-c3ccc(C(=O)NCCN)cc3)cc2N(C(=O)OC(C)C)C[C@@H]1C [Example I-489]	> 500 nM	1 to 10 µM
CC(=O)N1c2ccccc2N(C(=O)COc2cccc3ccccc23)C[C@@H]1C [Example I-736]	> 500 nM	> 10 µM
CC(=O)N1c2ccccc2N(Cc2ccc(O)cc2)C[C@@H]1C [Example I-923]	> 500 nM	> 10 µM
CC(=O)N1c2ccc(-c3ccc(N(C)S(C)(=O)=O)cc3)cc2N(C(=O)c2ccco2)C[C@@H]1C [Example I-492]	< 50 nM	0.1 to 1 µM
CC(=O)N1c2ccccc2N(Cc2cncn2C)C[C@@H]1C [Example I-926]	> 500 nM	> 10 µM
CC(=O)N1c2ccc(-c3ccc(S(C)(=O)=O)cc3)cc2N(C(=O)Oc2ccccn2)C[C@@H]1C [Example I-1314]	50 to 500 nM	1 to 10 µM
CC(=O)N1c2ccc(-c3cnn(C4COC4)c3)cc2N(C(=O)C(F)F)C[C@@H]1C [Example I-106, (S)-1-(4-acetyl-3-methyl-7-(1-(oxetan-3-yl)-1H-pyrazol-4-yl)-3,4-dihydroquinoxalin-1(2H)-yl)-2,2-difluoroethanone]	50 to 500 nM	> 10 µM
CC(=O)N1c2ccc(-c3ccc(OC(F)(F)F)cc3)cc2N(C(=O)c2ccco2)C[C@@H]1C [Example I-808]	50 to 500 nM	1 to 10 µM
CC(=O)N1c2ccc(-c3ccc(S(C)(=O)=O)cc3)cc2N(C(=O)c2ncc[nH]2)CC1C (stereo not drawn) [Example I-982]	> 500 nM	1 to 10 µM
C[C@H]1CN(C(=O)C2CC2)c2cc(-c3ccc(N4CCCS4(=O)=O)cc3)ccc2N1C(=O)C1CC1 [Example I-440]	50 to 500 nM	0.1 to 1 µM
CC(=O)N1c2ccccc2N(S(=O)(=O)Cc2ccccc2)C[C@@H]1C [Example I-954]	> 500 nM	> 10 µM
CC(=O)N1c2ccccc2N(Cc2ccc(C)cc2)C[C@@H]1C [Example I-895]	> 500 nM	> 10 µM
CC(=O)N1c2ccccc2N(S(=O)(=O)Cc2ccccc2Cl)C[C@@H]1C [Example I-953]	> 500 nM	> 10 µM
